Laboratory results: ChEMBL document CHEMBL5512612, “Novel small molecule inhibitors targeting renal cell carcinoma: Status, challenges, future directions” (Eur J Med Chem, 2024)

Tests used:
A498 [1] = assay: Antiproliferative activity against human A498 cells; type: functional, cell-based
786-0 = assay: Antiproliferative activity against human 786-0 cells; type: functional, cell-based
ACHN = assay: Induction of TRAIL induced apoptosis in human ACHN cells assessed as reduction in cFLIP level; type: functional, cell-based
[2] = biological target: Vascular endothelial growth factor receptor 2 (Homo sapiens, UniProt P35968); assay: Inhibition of VEGFR2 (unknown origin) by Kinase-Glo max reagent based assay
Sequence of Vascular endothelial growth factor receptor 2 (P35968 whole entry): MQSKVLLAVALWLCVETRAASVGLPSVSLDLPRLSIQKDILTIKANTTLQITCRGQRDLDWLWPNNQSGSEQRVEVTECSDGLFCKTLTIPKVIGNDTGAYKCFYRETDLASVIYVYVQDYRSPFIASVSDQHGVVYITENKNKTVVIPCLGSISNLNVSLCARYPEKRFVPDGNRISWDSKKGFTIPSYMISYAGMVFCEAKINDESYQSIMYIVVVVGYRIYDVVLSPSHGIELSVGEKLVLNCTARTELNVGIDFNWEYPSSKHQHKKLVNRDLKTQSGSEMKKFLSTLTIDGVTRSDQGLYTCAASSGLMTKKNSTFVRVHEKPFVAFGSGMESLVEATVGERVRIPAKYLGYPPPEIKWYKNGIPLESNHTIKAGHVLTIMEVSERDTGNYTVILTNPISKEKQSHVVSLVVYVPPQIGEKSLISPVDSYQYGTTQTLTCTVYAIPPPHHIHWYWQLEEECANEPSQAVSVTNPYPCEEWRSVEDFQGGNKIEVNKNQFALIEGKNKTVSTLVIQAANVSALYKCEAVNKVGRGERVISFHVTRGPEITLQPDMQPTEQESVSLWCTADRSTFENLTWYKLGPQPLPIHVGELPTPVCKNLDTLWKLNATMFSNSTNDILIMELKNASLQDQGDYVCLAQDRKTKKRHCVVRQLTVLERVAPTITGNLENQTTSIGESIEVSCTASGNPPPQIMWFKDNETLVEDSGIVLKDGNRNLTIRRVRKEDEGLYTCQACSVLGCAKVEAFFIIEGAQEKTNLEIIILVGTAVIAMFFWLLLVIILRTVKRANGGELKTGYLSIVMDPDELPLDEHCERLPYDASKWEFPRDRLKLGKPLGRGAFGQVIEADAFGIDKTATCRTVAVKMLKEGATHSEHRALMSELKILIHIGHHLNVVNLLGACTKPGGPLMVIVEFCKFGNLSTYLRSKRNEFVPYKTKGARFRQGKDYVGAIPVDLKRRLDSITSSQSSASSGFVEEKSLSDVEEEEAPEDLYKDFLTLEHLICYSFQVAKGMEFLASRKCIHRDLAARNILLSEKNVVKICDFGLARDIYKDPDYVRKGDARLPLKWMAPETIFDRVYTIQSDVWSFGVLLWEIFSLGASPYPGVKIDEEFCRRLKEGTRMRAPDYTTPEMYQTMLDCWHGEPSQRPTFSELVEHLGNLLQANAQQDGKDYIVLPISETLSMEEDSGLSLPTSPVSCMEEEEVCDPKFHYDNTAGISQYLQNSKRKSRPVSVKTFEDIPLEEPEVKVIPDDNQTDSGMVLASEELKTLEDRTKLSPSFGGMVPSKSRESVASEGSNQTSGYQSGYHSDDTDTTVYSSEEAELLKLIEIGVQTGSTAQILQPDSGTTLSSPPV

A498 [3] = assay: Cytotoxicity against human A498 cells incubated for 48 hrs by MTT assay; type: functional, cell-based; conditions: A498, 48 h
CAKI-1 = assay: Cytotoxicity against human CAKI-1 cells incubated for 48 hrs by MTT assay; type: functional, cell-based; conditions: CAKI-1, 48 h

Compound	IC50 (786-0) [nM]	IC50 [2] [nM]	IC50 (A498 [1]) [nM]	other results
CC(=O)OC[C@]12CC[C@H]3[C@@H](C[C@H]4O[C@]45CC=CC(=O)[C@]35C)[C@]1(O)CC[C@@]2(O)[C@@](C)(O)[C@H]1CC(C)=C(C)C(=O)O1				IC50 (ACHN): 117 nM
COc1ccc(/C=N/n2c(-c3cc4ccccc4[nH]3)n[nH]c2=S)cc1		64		
CC(=O)/C(=N\Nc1ccccc1)Sc1nnc(-c2cc3ccccc3[nH]2)n1/N=C/c1ccc(C)cc1		75		IC50 (A498 [3]): 2050 nM; IC50 (CAKI-1): 3230 nM
CCOC(=O)/C(=N\Nc1ccccc1)Sc1nnc(-c2cc3ccccc3[nH]2)n1/N=C/c1ccc(OC)cc1		77		IC50 (A498 [3]): 640 nM; IC50 (CAKI-1): 8460 nM
CCN(CC)CCNC(=O)c1c(C)[nH]c(/C=C2\C(=O)Nc3ccc(F)cc32)c1C [SUNITINIB]				IC50 (A498 [3]): 1250 nM
CC1=C(C)C(=O)O[C@@H]([C@](C)(O)[C@]2(O)CC[C@@]3(O)[C@@H]4C[C@H]5O[C@]56CC=CC(=O)[C@]6(C)[C@H]4CC[C@]23C)C1 [WITHANOLIDE E]				IC50 (ACHN): 1400 nM

More lines, main results first:

IC50 (786-0) [nM]	IC50 [2] [nM]	Compound	IC50 (A498 [1]) [nM]	other results
100000		O=C(Nc1ccc([N+](=O)[O-])cc1O)Nc1ccccc1Br	70000	
	34	Cc1ccc(/C=N/n2c(-c3cc4ccccc4[nH]3)n[nH]c2=S)cc1		
2000		O=C(Nc1cccc(Cl)c1)Nc1nc2ccc([N+](=O)[O-])cc2s1	2500	
> 25000		O=C(Nc1ccccc1)Nc1nc2ccccc2o1	> 25000	
20000		O=C(Nc1ccc(Cl)cc1)Nc1nc2ccccc2[nH]1	9000	
